Assay results from publication PMC8944662 (Proceedings of the National Academy of Sciences of the …, 2022).

Biological target: NfnL (isolated large subunit of NADH-dependent ferredoxin-NADP+ oxidoreductase I) (Pyrococcus furiosus, UniProt Q8U195)
Assay: intrinsic Trp/Tyr fluorescence quenching titration, Morrison fit
Format: binding

Chain of NfnL (isolated large subunit of NADH-dependent ferredoxin-NADP+ oxidoreductase I) (Q8U195 whole entry): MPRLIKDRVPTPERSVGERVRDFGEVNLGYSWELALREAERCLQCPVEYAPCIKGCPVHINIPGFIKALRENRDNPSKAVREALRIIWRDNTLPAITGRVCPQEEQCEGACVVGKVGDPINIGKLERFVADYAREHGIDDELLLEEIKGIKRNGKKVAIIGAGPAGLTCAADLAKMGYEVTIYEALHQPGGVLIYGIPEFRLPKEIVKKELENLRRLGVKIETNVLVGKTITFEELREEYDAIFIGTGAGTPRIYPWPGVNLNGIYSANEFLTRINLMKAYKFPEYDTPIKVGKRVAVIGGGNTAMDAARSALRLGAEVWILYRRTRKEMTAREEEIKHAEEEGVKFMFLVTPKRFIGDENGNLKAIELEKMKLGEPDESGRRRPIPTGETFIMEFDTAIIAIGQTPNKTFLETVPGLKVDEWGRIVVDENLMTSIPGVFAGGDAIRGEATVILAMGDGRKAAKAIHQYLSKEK

SMILES	Kd [µM]
NC(=O)C1=CN([C@@H]2O[C@H](COP(=O)(O)OP(=O)(O)OC[C@H]3O[C@@H](n4cnc5c(N)ncnc54)[C@H](OP(=O)(O)O)[C@@H]3O)[C@@H](O)[C@H]2O)C=CC1 [NADPH]	3 ± 0.4
NC(=O)c1ccc[n+]([C@@H]2O[C@H](COP(=O)(O)OP(=O)(O)OC[C@H]3O[C@@H](n4cnc5c(N)ncnc54)[C@H](OP(=O)(O)O)[C@@H]3O)[C@@H](O)[C@H]2O)c1 [NADP^+]	3 ± 0.4
